Assay results: patent US20240246980A1, “MODULATORS OF MAS-RELATED G-PROTEIN RECEPTOR D AND RELATED PRODUCTS AND METHODS” (Escient Pharmaceuticals, Inc., priority 2022, published 2024)
pIC50: −log10 of the molar value.

Target: human MRGPRD (Homo sapiens, UniProt Q8TDS7)
Assay: MRGPRD antagonist activity, IP-One HTRF assay in CHO cells stably expressing human MRGPRD (versus 100 μM β-Alanine agonist)
Format: cell-based
Method: Chinese Hamster Ovary (CHO) cells stably expressing human MRGPRD (Eurofins, San Diego CA) were plated in a 384-well plate at 20,000 cells per well in 12 μL of Optimem (Fisher Scientific 11-058-021). Plates were kept in the incubator at 37° C. overnight. Antagonists were solubilized at a concentration of 10 mM in DMSO, and the agonists were solubilized to stock concentrations of either 50 mM in H2O (β-Alanine) or 10 mM in DMSO (all others) and then diluted in assay buffer (final concentrations of 5.7 mM Tris-HCl, 43 mM NaCl, 50 mM LiCl, pH=8). The concentration of DMSO was normalized across the plate. Antagonists were added to the plate using a Tecan D300 Digital Dispenser at nanoliter/picoliter volumes and 2 μL of agonists in assay buffer were added to each well for a final assay volume of 14 μL. Plates were covered and incubated for 1 h at 37° C. and then for 1 h at room temperature. IP-1 standards and HTRF detection reagents were added according to an IP-One-Gq Kit purchased from Cisbio (part number 62IPAPEJ) and incubated in the dark for 1 h at room temperature. Assay plates were read on either a Molecular Devices SpectraMax iD5 plate reader or a BMG ClarioStar plate reader. The HTRF ratio was calculated form the raw data and graphed using GraphPad Prism to calculate IC50 values. Data are expressed as average IC50 values and average percent antagonism calculated as a percent of the maximum efficacy response. For these studies, the variability of the data was assessed by determining the standard error of mean (SEM).
The activity ranges are denoted as follows: “+++++” denotes antagonist activity <100 nM; “++++” denotes antagonist activity between 100 and 500 nM; “+++” denotes activity between 500 and 1000 nM; “++” denotes activity between 1000 and 3000 nM; and “+” denotes activity >3000 nM.

Sequence of human MRGPRD (Q8TDS7 whole entry): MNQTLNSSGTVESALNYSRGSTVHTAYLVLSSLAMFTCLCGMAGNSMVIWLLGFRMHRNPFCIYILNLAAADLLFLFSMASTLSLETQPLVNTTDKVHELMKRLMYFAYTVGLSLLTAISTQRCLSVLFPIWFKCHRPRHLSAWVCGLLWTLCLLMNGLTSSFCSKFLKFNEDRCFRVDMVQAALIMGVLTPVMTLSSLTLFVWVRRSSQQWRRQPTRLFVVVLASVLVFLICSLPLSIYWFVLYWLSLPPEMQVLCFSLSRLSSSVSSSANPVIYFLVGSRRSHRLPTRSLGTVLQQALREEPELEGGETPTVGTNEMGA

Row | pIC50 | Compound
1 | 5.52 to 6.00 | COc1ccc(NC(=O)N2CCC[C@H](c3nc(-c4cccc(OC)c4)c4ccccn34)C2)cc1 (stereo in doubt) [Compound 5-29]
2 | 6.30 to 7.00 | COc1cccc(-c2nc([C@@H]3CCCN(C(=O)Nc4ccc(N5CCCC5)cc4)C3)n3ccccc23)c1 [Compound 1-1]
3 | > 7.00 | COc1cccc(-c2nc([C@@H]3CCCN(C(=O)Nc4ccc(N(C)C)cc4)C3)n3ccccc23)c1 [Compound 1-2, (R)—N-(4-(dimethylamino)phenyl)-3-(1-(3-methoxyphenyl)imidazo[1,5-a]pyridin-3-yl)piperidine-1-carboxamide]
4 | 5.52 to 6.00 | COc1cccc(-c2nc(C3CCCN(C(=O)N(C)c4ccccc4F)C3)n3ccccc23)c1 (stereo not drawn) [Compound 1-3]
5 | 6.00 to 6.30 | COc1cccc(-c2nc(C3CCCN(C(=O)N(C)c4cccc(F)c4)C3)n3ccccc23)c1 (stereo not drawn) [Compound 1-4]
6 | 5.52 to 6.00 | COc1cccc(-c2nc([C@H]3CCCN(C(=O)Nc4ccc(N(C)C)cc4)C3)n3ccccc23)c1 [Compound 1-5]
7 | > 7.00 | COc1cccc(-c2nc([C@@H]3CCCN(C(=O)Nc4ccc(N(C)C)c(F)c4)C3)n3ccccc23)c1 [Compound 1-6]
8 | > 7.00 | COc1cccc(-c2nc([C@@H]3CCCN(C(=O)Nc4ccc(N(C)C)c(C)c4)C3)n3ccccc23)c1 [Compound 1-7]
9 | > 7.00 | COc1cccc(-c2nc([C@@H]3CCCN(C(=O)Nc4ccc(N(C)C)cc4C)C3)n3ccccc23)c1 [Compound 1-8]
10 | > 7.00 | COc1cccc(NC(=O)N2CCC[C@@H](c3nc(-c4cccc(OC)c4)c4ccccn34)C2)c1 [Compound 1-9]
11 | 6.30 to 7.00 | COc1cccc(-c2nc([C@@H]3CCCN(C(=O)Nc4ccc(C)c(C)c4)C3)n3ccccc23)c1 [Compound 1-10]
12 | 6.30 to 7.00 | COc1cccc(-c2nc([C@@H]3CCCN(C(=O)Nc4ccc(C)cc4F)C3)n3ccccc23)c1 [Compound 1-11]
13 | > 7.00 | CCc1ccc(NC(=O)N2CCC[C@@H](c3nc(-c4cccc(OC)c4)c4ccccn34)C2)cc1 [Compound 1-12]
14 | 6.30 to 7.00 | COc1cccc(-c2nc([C@@H]3CCCN(C(=O)Nc4cccc(C)c4)C3)n3ccccc23)c1 [Compound 1-13]
15 | 6.30 to 7.00 | COc1cccc(-c2nc([C@@H]3CCCN(C(=O)Nc4cccc(F)c4)C3)n3ccccc23)c1 [Compound 1-14]
16 | 6.30 to 7.00 | COc1cccc(-c2nc([C@@H]3CCCN(C(=O)Nc4ccccc4C(F)(F)F)C3)n3ccccc23)c1 [Compound 1-15]
17 | 6.30 to 7.00 | COc1cccc(-c2nc([C@@H]3CCCN(C(=O)Nc4cccc(C#N)c4)C3)n3ccccc23)c1 [Compound 1-16]
18 | > 7.00 | COc1ccc(NC(=O)N2CCC[C@@H](c3nc(-c4cccc(OC)c4)c4ccccn34)C2)cc1 [Compound 1-17]
19 | 6.30 to 7.00 | COc1cccc(-c2nc([C@@H]3CCCN(C(=O)Nc4ccc(C)cc4)C3)n3ccccc23)c1 [Compound 1-18]
20 | > 7.00 | CCN(CC)c1ccc(NC(=O)N2CCC[C@@H](c3nc(-c4cccc(OC)c4)c4ccccn34)C2)cc1 [Compound 1-19]
21 | > 7.00 | COc1cccc(-c2nc([C@@H]3CCCN(C(=O)Nc4ccc(C(=O)N(C)C)cc4)C3)n3ccccc23)c1 [Compound 1-20]
22 | 6.00 to 6.30 | COc1cccc(-c2nc([C@@H]3CCCN(C(=O)Nc4ccccc4CN(C)C)C3)n3ccccc23)c1 [Compound 1-21]
23 | 6.00 to 6.30 | COc1cccc(-c2nc([C@@H]3CCCN(C(=O)Nc4cccc(C(F)(F)F)c4)C3)n3ccccc23)c1 [Compound 1-22]
24 | 6.00 to 6.30 | COc1cccc(-c2nc([C@@H]3CCCN(C(=O)Nc4cccc(OC(F)(F)F)c4)C3)n3ccccc23)c1 [Compound 1-23]
25 | > 7.00 | CCOc1cccc(NC(=O)N2CCC[C@@H](c3nc(-c4cccc(OC)c4)c4ccccn34)C2)c1 [Compound 1-24]
26 | > 7.00 | CCOc1ccc(NC(=O)N2CCC[C@@H](c3nc(-c4cccc(OC)c4)c4ccccn34)C2)cc1 [Compound 1-25]
27 | 6.30 to 7.00 | COc1cccc(-c2nc([C@@H]3CCCN(C(=O)Nc4ccc(CN(C)C)cc4)C3)n3ccccc23)c1 [Compound 1-26]
